Laboratory results taken from US20240174608A1, “COMPOUNDS FOR BRAIN IMAGING” (The General Hospital Corporation, priority 2021, published 2024).

Legend:
SIRT1 [1] = biological target: T1, SIRT1 (Mus musculus, UniProt Q923E4); experiment: PET/CT imaging in 5×FAD transgenic mice (AD model); type: in vivo; parameters: from tissue; host or cells: brain of living 5×FAD transgenic mice; conditions: at 3 min
T1 sequence (Q923E4 1-737): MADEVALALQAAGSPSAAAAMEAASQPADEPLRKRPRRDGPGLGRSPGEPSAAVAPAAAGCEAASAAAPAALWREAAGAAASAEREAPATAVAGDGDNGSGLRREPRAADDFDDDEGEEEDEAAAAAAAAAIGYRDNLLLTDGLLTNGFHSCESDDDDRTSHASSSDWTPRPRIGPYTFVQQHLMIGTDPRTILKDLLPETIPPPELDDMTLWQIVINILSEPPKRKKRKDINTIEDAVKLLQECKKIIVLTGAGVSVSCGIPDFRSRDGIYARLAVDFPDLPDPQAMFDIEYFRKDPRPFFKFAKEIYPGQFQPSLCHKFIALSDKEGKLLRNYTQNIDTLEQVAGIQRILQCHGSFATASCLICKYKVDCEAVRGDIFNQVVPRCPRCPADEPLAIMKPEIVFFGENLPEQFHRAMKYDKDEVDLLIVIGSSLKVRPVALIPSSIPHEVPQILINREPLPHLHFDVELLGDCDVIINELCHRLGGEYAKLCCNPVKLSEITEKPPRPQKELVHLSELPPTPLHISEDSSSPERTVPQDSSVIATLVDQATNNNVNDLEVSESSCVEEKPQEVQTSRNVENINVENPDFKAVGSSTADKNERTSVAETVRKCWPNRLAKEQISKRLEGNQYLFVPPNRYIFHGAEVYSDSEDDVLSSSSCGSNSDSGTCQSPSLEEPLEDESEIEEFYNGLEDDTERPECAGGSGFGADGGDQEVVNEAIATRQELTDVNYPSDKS
Excerpt: C57BL/6 mice were used for baseline and blocking studies (25-30 g, male; n=6 for baseline, n=5 for blocking with the pre-treatment of compound 8, and n=6 for blocking with the pre-treatment of Ex-527), and B6SJL wild-type and 5×FAD transgenic mice (20-25 g, male; n=4 for wild-type mice and n=4 for 5×FAD transgenic mice) were included to evaluate the [^11C]8 in a model of AD. All animals were anesthetized with inhalational isoflurane at 3% in a carrier of 2 L/min medical oxygen, and maintained at 2% isoflurane for the duration of the scan. The mice were fixed on the bed of a Triumph Trimodality PET/CT scanner (Gamma Medica, Northridge, CA) in the prone position, and injected with [^11C]8 (150-200 μL, ˜200 μCi) via a lateral tail vein catheterization at the start of PET acquisition. For blocking studies, compound 8 (5 mg/kg, iv) or Ex-527 (5 mg/kg, iv) was injected at 10 min prior to [^11C]8 injection. Dynamic PET acquisition lasted for 60 min and was followed by CT for anatomic coregistration. PET data were reconstructed using a 3D-MLEM method resulting in a full width at half-maximum resolution of 1 mm. Reconstructed images were exported from the scanner in DICOM format along with an anatomic CT. […] The time-activity curves were expressed as the percentage of injected dose per gram (% ID/g).

SIRT1 [2] = experiment: NHP PET/MR brain imaging; conditions: baboon
Description: (§2) Atropine 0.05 mg/kg was used intramuscularly to prevent excessive secretion (15 or 30 min of ketamine and xylazine). Anesthesia was induced with intramuscular xylazine (0.5-2.0 mg/kg) and ketamine (10 mg/kg). […] PET/MR images were acquired in a Biograph mMR scanner (Siemens Healthcare, Erlangen, Germany), and PET compatible 8-channel coil arrays for NHP brain imaging with a PET resolution of ˜5 mm at isocenter. Dynamic PET image acquisition was initiated followed by administration of [^11C]8 in a homogeneous solution of 10% ethanol and 90% isotonic saline. A high-resolution structural MRI using [sequence] sequence was acquired about 30 min post-radiotracer administration for anatomical co-registration. Dynamic PET data were acquired and stored in list mode. After corrected for attenuation, scatter, and decay, the PET images were reconstructed using a 3D-OSEM method. […] Volumes of interests were placed referencing the MRI template. Time-activity curves were exported in terms of decay corrected activity at specified time points with gradually increasing intervals. The time-activity curves were expressed as SUV.

SIRT1 [3] = biological target: T1, SIRT1; experiment: Rodent PET/CT baseline imaging and whole body biodistribution; type: in vivo; parameters: from tissue; host or cells: brain and other organs of living C57BL/6 mice; conditions: C57BL/6 mice
Excerpt: (§1) C57BL/6 mice were used for baseline and blocking studies (25-30 g, male; n=6 for baseline, n=5 for blocking with the pre-treatment of compound 8, and n=6 for blocking with the pre-treatment of Ex-527), and B6SJL wild-type and 5×FAD transgenic mice (20-25 g, male; n=4 for wild-type mice and n=4 for 5×FAD transgenic mice) were included to evaluate the [^11C]8 in a model of AD. All animals were anesthetized with inhalational isoflurane at 3% in a carrier of 2 L/min medical oxygen, and maintained at 2% isoflurane for the duration of the scan. The mice were fixed on the bed of a Triumph Trimodality PET/CT scanner (Gamma Medica, Northridge, CA) in the prone position, and injected with [^11C]8 (150-200 μL, ˜200 μCi) via a lateral tail vein catheterization at the start of PET acquisition. For blocking studies, compound 8 (5 mg/kg, iv) or Ex-527 (5 mg/kg, iv) was injected at 10 min prior to [^11C]8 injection. Dynamic PET acquisition lasted for 60 min and was followed by CT for anatomic coregistration. PET data were reconstructed using a 3D-MLEM method resulting in a full width at half-maximum resolution of 1 mm. Reconstructed images were exported from the scanner in DICOM format along with an anatomic CT. […] Volumes of interests, including the whole brain, striatum, cortex, thalamus, midbrain, cerebellum and brain stem were placed referencing the MRI template software. […] The time-activity curves were expressed as the percentage of injected dose per gram (% ID/g).

[4] = NHP arterial plasma analysis; conditions: baboon
Description: as §2

SIRT1 [5] = biological target: T1, SIRT1; experiment: Rodent PET/CT blocking studies (in vivo specificity); parameters: from tissue; host or cells: brain and other organs of living C57BL/6 mice; species or system C57BL/6 mice; conditions: for specific binding in brain: at 60 min
Excerpt: as §1

[6] = system: histone deacetylases (HDACs); conditions: at 100 μM; cited from earlier work
[7] = system: NAD glycohydrolase (NADase); conditions: at 100 μM; cited from earlier work
[8] = baseline whole body biodistribution

| Compound | brain uptake plateau (SIRT1 [1]) | uptake in midbrain (SIRT1 [2]) | uptake in thalamus (SIRT1 [2]) | peak whole brain uptake (SIRT1 [2]; intravenous) | time to peak concentration in whole brain (SIRT1 [2]; intravenous) | radioactivity in liver and kidney (SIRT1 [3]; [8]) | uptake in blood (SIRT1 [3]; [8]) | BBB penetration (SIRT1 [3]; baseline) | time to reach plateau of brain time course (SIRT1 [3]; baseline) | maximum radioactivity accumulation in the whole brain (SIRT1 [3]; baseline, iv tail vein) | washout ratio % ID/g 5 min / % ID/g 60 min (SIRT1 [3]; baseline, brain) | arterial plasma radioactivity remaining (of the total radioactivity) ([4]; after 10 min) | parent compound in plasma (stability in plasma over time) ([4]; at 30 min) | brain uptake plateau (SIRT1 [5]; at 5 min, pre-treatment with compound 8 (5 mg/kg, iv)) | specific binding in brain (SIRT1 [5]; blocking by pre-treatment with Ex-527 (5 mg/kg, iv) 10 min prior) | specific binding in brain (SIRT1 [5]; self-blocking, pre-treatment with compound 8 (5 mg/kg, iv) 10 min prior) | specific binding in blood, heart and lung (SIRT1 [5]; both blocking experiments) | specific binding in liver and kidney (SIRT1 [5]; both blocking experiments) | inhibitory effect on class VII histone deacetylases (HDACs) [6] | inhibitory effect on NAD glycohydrolase (NADase) [7] |
| --- | --- | --- | --- | --- | --- | --- | --- | --- | --- | --- | --- | --- | --- | --- | --- | --- | --- | --- | --- | --- |
| [11CH3]c1ccc2[nH]c3c(c2c1)CCCC3C(N)=O (centres unmarked) [[^11C]8, 6-[^11C]methyl-2,3,4,9-tetrahydro-1H-carbazole-1-carboxamide] | 6.3 % ID/g | 4.1 SUV | 3.6 SUV | greater than 2.9 SUV | approximately 4 min | > 10 % ID/g | relatively low uptake | penetrated the BBB | around 5 min | 7.5 % ID/g | 1.01 | less than 10% | more than 30% | 6.0 % ID/g | 62% | 68% | abundant specific binding | No specific binding |  |  |
| NC(=O)C1CCCc2c1[nH]c1ccc(Cl)cc21 (centres unmarked) [Ex-527] |  |  |  |  |  |  |  |  |  |  |  |  |  |  |  |  |  |  | no inhibitory effect | no inhibitory effect |
